Results: the supplement of paper PMC4862054

Tests used:
CAL-85-1 [1] = details: 72 h
How it was run: (§1)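 Rows with a drug sensitivity score of zero were dropped, and EC50 was taken from the fitted percent-inhibition dose-response curve, censored at the highest concentration. Data were normalised on each plate to vehicle and a positive kill control and checked by Z'-factor. The assay seeded breast cancer cell lines in 20 µl onto 384-well plates pre-loaded with compound in 5 µl medium for 72 h, then added 2.5 µl CellTiter-Blue for 2 h at 37 °C and read fluorescence at 560/590 nm.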

MDA-MB-453 [2] = details: 72 h
How it was run: as §1

CAL-85-1 [3] = assay: normalised viability (% of control), CellTiter-Blue; higher = more viable cells (about 100 = DMSO control); details: incubation time: 72 h
How it was run: (§2)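 Breast cancer cell lines were treated for 72 h in 384-well format and measured by CellTiter-Blue fluorescence at 560/590 nm. Results were normalised per plate to vehicle (100) and a positive kill control (0). The entry is normalised viability at a single listed concentration of the series.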

HCC1599 [4] = assay: as above; details: incubation time: 72 h
How it was run: as §2

HDQ-P1 [5] = assay: as above; details: incubation time: 72 h
How it was run: as §2

CAL-51 [6] = assay: as above; details: incubation time: 72 h
How it was run: as §2

HCC1143 [7] = assay: as above; details: incubation time: 72 h
How it was run: as §2

MDA-MB-231 [8] = assay: as above; details: incubation time: 72 h
How it was run: as §2

BT-549 [9] = assay: as above; details: incubation time: 72 h
How it was run: as §2

DU-4475 [10] = details: 72 h
How it was run: as §1

HDQ-P1 [11] = details: 72 h
How it was run: as §1

CAL-51 [12] = details: 72 h
How it was run: as §1

MFM-223 = details: 72 h
How it was run: (§3)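 A 20 µl suspension of breast cancer cells was placed in 384-well plates that already contained compound at 5 concentrations in 10-fold steps across a compound-specific 10,000-fold range, and the plates were left for 72 h. CellTox Green fluorescence at 485/520 nm gave cell death, and CellTiter-Glo luminescence, read after 10 min at room temperature, gave viability. Each plate was normalised to 0.1 % DMSO and a positive kill control. EC50 was fitted from the curves and censored at the top concentration.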

HDQ-P1 [13] = details: 72 h; remark: listed apart in the source
How it was run: as §3

CAL-120 = details: 72 h
How it was run: as §3

MCF-10A = details: 72 h
How it was run: as §3

CAL-51 [14] = details: 72 h; remark: listed apart in the source
How it was run: as §3

HCC1143 [15] = details: 72 h
How it was run: as §3

MDA-MB-231 [16] = details: 72 h
How it was run: as §3

BT-474 = details: 72 h
How it was run: as §3

BT-549 [17] = details: 72 h
How it was run: as §3

Hs578T = details: 72 h
How it was run: as §3

HCC1937 = details: 72 h
How it was run: as §3

MDA-MB-453 [18] = details: 72 h; remark: listed apart in the source
How it was run: as §3

MDA-MB-436 = details: 72 h
How it was run: as §3

CAL-85-1 [19] = details: 72 h; remark: listed apart in the source
How it was run: as §3

DU-4475 [20] = details: 72 h; remark: listed apart in the source
How it was run: as §3

HCC1599 [21] = details: 72 h
How it was run: as §3

CAL-148 = details: 72 h
How it was run: as §3

SK-BR-3 = details: 72 h
How it was run: as §3

Structure (SMILES) | EC50, CellTiter-Blue viability (MDA-MB-453 [2]) [µM] | EC50, CellTiter-Glo (HCC1143 [15]) [µM] | EC50, CellTiter-Glo (MDA-MB-231 [16]) [µM] | EC50, CellTiter-Glo (BT-474) [µM] | EC50, CellTiter-Glo (BT-549 [17]) [µM] | EC50, CellTiter-Glo (HCC1937) [µM] | EC50, CellTiter-Blue viability (CAL-85-1 [1]) [µM] | normalised viability (CAL-85-1 [3]; 10 nM) [%] | normalised viability (HCC1599 [4]; 100 nM) [%] | normalised viability (HDQ-P1 [5]; 10 nM) [%] | normalised viability (CAL-51 [6]; 10 nM) [%] | normalised viability (HCC1143 [7]; 100 nM) [%] | normalised viability (MDA-MB-231 [8]; 100 nM) [%] | normalised viability (BT-549 [9]; 100 nM) [%] | EC50, CellTiter-Glo (MFM-223) [µM] | EC50, CellTiter-Glo (HDQ-P1 [13]) [µM] | EC50, CellTiter-Glo (CAL-120) [µM] | EC50, CellTiter-Glo (MCF-10A) [µM] | EC50, CellTiter-Glo (CAL-51 [14]) [µM] | EC50, CellTiter-Glo (Hs578T) [µM] | other results
CN(C)c1nc(N(C)C)nc(N(C)C)n1 [Altretamine] | 6.88 |  |  |  |  |  | 9.54 | 102 | 109 | 105 | 103 | 91.7 | 96.8 | 84.4 |  |  |  |  |  |  | 
COC(=O)c1ccc2c(c1)NC(=O)/C2=C(\Nc1ccc(N(C)C(=O)CN2CCN(C)CC2)cc1)c1ccccc1 [BIBF 1120] | 3.18 |  |  |  |  |  | 6.44 | 99.9 | 91.3 | 122 | 104 | 88.2 | 104 | 111 |  |  |  |  |  |  | EC50, CellTiter-Blue viability (DU-4475 [10]): 6.94 µM; EC50, CellTiter-Blue viability (HDQ-P1 [11]): 5.93 µM; EC50, CellTiter-Blue viability (CAL-51 [12]): 1.4 µM
O=P1(N(CCCl)CCCl)NCCCO1 (centres undefined) [Cyclophosphamide] |  |  |  |  |  |  |  |  |  |  |  |  |  |  |  |  |  |  |  |  | normalised viability (CAL-85-1 [3]; 40 nM): 101%; normalised viability (HCC1599 [4]; 400 nM): 109%; normalised viability (HDQ-P1 [5]; 40 nM): 97.9%; normalised viability (CAL-51 [6]; 40 nM): 107%; normalised viability (HCC1143 [7]; 400 nM): 90.2%; normalised viability (MDA-MB-231 [8]; 400 nM): 97.8%; normalised viability (BT-549 [9]; 400 nM): 117%
CNC(=O)c1ccc(N2C(=S)N(c3ccc(C#N)c(C(F)(F)F)c3)C(=O)C2(C)C)cc1F [Enzalutamide] |  |  |  |  |  |  |  |  |  |  |  |  |  |  |  |  |  |  | 0.0486 |  | EC50, CellTiter-Glo (MDA-MB-453 [18]): > 10 µM
C=C1C[C@@H]2[C@H](CC[C@]3(C)C(=O)CC[C@@H]23)[C@@]2(C)C=CC(=O)C=C12 [Exemestane] | 0.916 |  |  |  |  |  |  | 84.4 | 87.6 | 102 | 96.2 | 96 | 99.2 | 106 |  |  |  |  |  |  | 

The next lines start with results.

EC50, CellTiter-Blue viability (MDA-MB-453 [2]) [µM] | EC50, CellTiter-Glo (HCC1143 [15]) [µM] | EC50, CellTiter-Glo (MDA-MB-231 [16]) [µM] | EC50, CellTiter-Glo (BT-474) [µM] | EC50, CellTiter-Glo (BT-549 [17]) [µM] | EC50, CellTiter-Glo (HCC1937) [µM] | Structure (SMILES) | EC50, CellTiter-Blue viability (CAL-85-1 [1]) [µM] | normalised viability (CAL-85-1 [3]; 10 nM) [%] | normalised viability (HCC1599 [4]; 100 nM) [%] | normalised viability (HDQ-P1 [5]; 10 nM) [%] | normalised viability (CAL-51 [6]; 10 nM) [%] | normalised viability (HCC1143 [7]; 100 nM) [%] | normalised viability (MDA-MB-231 [8]; 100 nM) [%] | normalised viability (BT-549 [9]; 100 nM) [%] | EC50, CellTiter-Glo (MFM-223) [µM] | EC50, CellTiter-Glo (HDQ-P1 [13]) [µM] | EC50, CellTiter-Glo (CAL-120) [µM] | EC50, CellTiter-Glo (MCF-10A) [µM] | EC50, CellTiter-Glo (CAL-51 [14]) [µM] | EC50, CellTiter-Glo (Hs578T) [µM] | other results
0.532 |  |  |  |  |  | Nc1cc(C(F)(F)F)c(-c2cc(N3CCOCC3)nc(N3CCOCC3)n2)cn1 [BKM-120] | 1.31 | 86.6 | 70.1 | 111 | 98.5 | 86.1 | 83.6 | 96.8 |  |  |  |  |  |  | EC50, CellTiter-Blue viability (DU-4475 [10]): 2.26 µM; EC50, CellTiter-Blue viability (HDQ-P1 [11]): 1.26 µM; EC50, CellTiter-Blue viability (CAL-51 [12]): 0.922 µM
 | > 10 | 9.28 | 5.15 | 2.36 | 6.15 | Nc1cc(C(F)(F)F)c(-c2cc(N3CCOCC3)nc(N3CCOCC3)n2)cn1 [Buparlisib] |  |  |  |  |  |  |  |  | 0.225 | 1 | 8.23 | 0.513 | 2.4 | 2.33 | 
 | 8.69 | 6.15 | 9.14 | 1 | 8.34 | CCOC(=O)CCNc1cc(N2CCc3ccccc3CC2)nc(-c2ccccn2)n1 [GSK-J4] |  |  |  |  |  |  |  |  | 7.94 | 11.7 | 12.1 | 9.27 | 1.34 | 12.2 | EC50, CellTiter-Glo (MDA-MB-436): 4.33 µM; EC50, CellTiter-Glo (CAL-85-1 [19]): 5.18 µM; EC50, CellTiter-Glo (DU-4475 [20]): 7.17 µM; EC50, CellTiter-Glo (HCC1599 [21]): 9.37 µM; EC50, CellTiter-Glo (CAL-148): 3.44 µM; EC50, CellTiter-Glo (MDA-MB-453 [18]): 2.96 µM; EC50, CellTiter-Glo (SK-BR-3): 11.6 µM
 | 1.62 | 1.3 | 1.11 | 2.51 | 2.53 | Cc1cc(Nc2cc(CN3CCOCC3)c3nc(C)c(Cc4ccc(Cl)cc4F)n3n2)n[nH]1 [Gandotinib] |  |  |  |  |  |  |  |  | 0.42 | 1.93 | 5.01 | 3.14 | 0.775 | 2.66 | EC50, CellTiter-Glo (MDA-MB-436): 1.51 µM; EC50, CellTiter-Glo (CAL-85-1 [19]): 0.955 µM; EC50, CellTiter-Glo (DU-4475 [20]): 7.86 µM; EC50, CellTiter-Glo (SK-BR-3): 4.03 µM
